The values below come from patent US9925235B2, “Tilapia piscidins for use in enhancement of wound healing” (Academia Sinica, priority 2015, dated 2018).

In experiment [1] the test system is EGF, TGF-β, VEGF gene expression. The experiment is described as follows: Real-time PCR of cell proliferation genes and histology of infected wounds, TP4. In kind it is in vivo, mice. From the text: Adult mice were infected with MRSA, and treated with TP4 or antibiotics, while controls were infected but untreated. On the indicated days, total RNA was isolated from the wound and reverse transcribed for use in real-time qPCR analysis of EGF (FIG. 10A), TGF-β (FIG. 10B), and VEGF (FIG. 10C) gene expression. (r=3; n=6.) Values with different letters show significant differences (P<0.05), as determined by ANOVA.
Tracings were taken immediately after injury. For uncontaminated wounds, wound size was determined every second day. For contaminated wounds, mice were euthanized at days 3, 5, or 19, and tracings of the wound edges were made. Wound areas were determined using the Macintosh Adobe Photoshop program, Histogram Analysis. The percentage of wound contraction was calculated as follows: % Wound contraction=(A0−At)/A0×100, where A0 is the original wound area, and at is the area of wound at the time of biopsy, accordingly. Cell proliferation gene expression was performed by real-time PCR, using the methods described above.
(§1) Skin tissues were removed and fixed as previously described. In brief, the cryosections were fixed with 4% formaldehyde, and the tissue samples were stained with VEGF. IHC was analyzed by three independent investigators. Images were taken using a BX-51 microscope (Olympus, Japan). ELISA was performed as previously described.
Background: Real-time PCR tracks product formation cycle by cycle.

Another experiment deals with TNF, IL-6, IL-1. Description: ELISA of serum cytokines in MRSA wound-infected mice, TP4. In kind it is in vivo. The method, then: A skin region of about 1 square centimeter was removed from the abdomen of […] mice, and the wound was infected with […] of broth mix containing 10^6 cfu of MRSA alone, or together with methicillin, vancomycin, or TP4. At different days post-infection: TNF (FIG. 9A), IL-6 (FIG. 9B), and IL-1 (FIG. 9C) were detected in serum by ELISA. (r=3; n=6.) Values with different letters show significant differences (P<0.05), as determined by ANOVA.
as §1

Experiment [2] has as its system Collagen I, collagen III, KGF gene expression in Hs-68 cells. The experiment is described as follows: Real-time PCR of collagen I, collagen III, KGF in Hs-68 cells. In kind it is cell-based, human. Particulars: TP4 6.25 μg/ml, 48 h, vs controls. The method, then: In FIG. 5A-5C, Hs-68 cells were treated with different doses of TP4 for 48 h, and cell viability was measured by neutral red, LDH, and MTT assays. (r=3; n=6.) In FIG. 5D-5F, the experimental Hs-68 cells were treated with TP4 ([…]), while control cells were untreated. After 48 h, total RNA was isolated and reverse transcribed for use in real-time qPCR analysis. Six replicate wells were analyzed per assay. Results represent the mean±SEM from three independent experiments. (Student's t-test: *, P<0.05; **, P<0.01; n.s.: not significant).
Total RNA was isolated from HaCaT and Hs-68 cells, and purified using a Qiagen RNeasy kit. Reverse transcription into cDNA was performed with an iScript cDNA Synthesis Kit (BIO-RAD, USA) according to the manufacturer's recommendations. Real-time polymerase chain reaction (PCR) was performed to analyze gene expression, using […] of cDNA, 2× iQSYBR® Green Supermix (BIO-RAD, USA), and 500 nM of forward and reverse primers against selected genes or GAPDH (reference gene), according to the instructions of the manufacturer. Quantitative PCR was performed under the following conditions: 40 cycles of 1 min at 95° C., 30 s at 55° C., and 1 min at 72° C. The threshold cycle number (Ct) was calculated with BIO-RAD software. Relative transcript quantities were calculated using the ΔCt method with GAPDH as the internal reference gene. ΔCt is the difference in the threshold cycles of messenger (m)RNA for selected genes relative to those of GAPDH mRNA. Real-time PCR was performed in triplicate for each experimental group.

Another experiment has as its system MRSA. The experiment is described as follows: Mouse wound healing model, wound closure, TP4. In kind it is in vivo, Balb/c mice. The following applies: MRSA-contaminated full-thickness wounds. On the procedure: Female Balb/c mice (6-8 weeks old) were used for wound healing experiments. All mice were housed individually to prevent fighting and further damage to the wounds, and they were provided with food and water ad libitum. Mice were maintained on a 12 h light: dark cycle at room temperature, and acclimatized to the environment for at least a week before use in experiments. All researchers wore caps, sterile gloves, gowns, and shoe covers when handling mice. Hair was removed from the back of the mice by shaving, and a full thickness wound (1 cm in diameter) was then created in the exposed region. Each wound was inoculated with 50 μl of broth mix containing 10^6 cfu (colony forming units) of S. aureus. At 5 min after inoculation, 50 μl TP4 (2 mg/ml) in a total volume of 0.1 ml were applied. […] Animals were subsequently euthanized by CO2 inhalation and the wounds assessed. […] Each wound was measured and then removed from the animal, with unwounded skin taken from the contralateral dorsum as a control. Each biopsy was divided into six sections, with three sections being used for tensiometry and histology, and three sections for quantitative determination of microbial load. […]
Tracings were taken immediately after injury. For uncontaminated wounds, wound size was determined every second day. […] Wound areas were determined using the Macintosh Adobe Photoshop program, Histogram Analysis. […]

The mark [3] stands for this setting: serum, 3 days after treatment, vs positive controls.

Turning to “Tilapia piscidin 4 (FIHHIIGGLFSAGKAIHRLIRRRRR; listed as Oreochromis niloticus) [TP4]”, the “epidermal regeneration, histological examination of biopsies” value in experiment [1] (TP4-treated wounds) is “complete and architecturally normal epidermal regeneration”. Further, the “gene expression of EGF” value in experiment [1] (wound tissue, 3 days, vs control and vancomycin-treated mice) is “enhanced gene expression”. Moreover, the “gene expression of TGF” value in experiment [1] (wound tissue, 7 days, vs control and vancomycin-treated mice) was “enhanced gene expression”. In addition, the “gene expression of VEGF” value in experiment [1] (wound tissue, 14 days, vs control and vancomycin-treated mice) was “enhanced gene expression”. Further, the IL-1 result in the experiment on TNF, IL-6, IL-1 (TP4-treated wounds vs control wounds) is recorded as “statistically significant enhancement”. In the experiment on TNF, IL-6, IL-1 (setting [3]), the “induction of IL-6” value is “decreased induction” and the “induction of TNF” value is given as “decreased induction”. Also, in experiment [2], the “Collagen I gene expression” value was “enhanced”, the “Collagen III gene expression” value was “enhanced” and the KGF gene expression entry is reported as “enhanced”. In the experiment with MRSA, the “day of wound closure” value is 21 days and the wound closure entry was “wound closure was accelerated”.
